We go through three compounds from ChEMBL document CHEMBL1144255, “A non-crosslinking platinum-acridine hybrid agent shows enhanced cytotoxicity compared to clinical BCNU and cisplatin in glioblastoma cells” (Bioorg Med Chem Lett, 2005).

Test [1] in a line: In vitro inhibitory concentration against growth of SNB19 glioblastoma cell line in clonogenic survival assay after 24 hr. The class given is functional, cell-based, Homo sapiens.
The next test relates to U-87 MG. Briefly: In vitro inhibitory concentration against growth of U87MG glioblastoma cell line in clonogenic survival assay after 24 hr. It is filed as functional, cell-based, Homo sapiens, U-87MG ATCC.
Where [2] appears, read: Homo sapiens, Glioblastoma, 24 h.

In general, IC50 refers to the concentration needed to halve the response being measured. Read a high IC50 as weaker potency. Turning to `CNC(=S)N(C)CCNc1c2ccccc2nc2ccccc12`, the IC50 in test [1] (setting [2]) stood at 2460 nM; with U-87 MG (Homo sapiens, U-87 MG, 24 h), 1830 nM.

With CISPLATIN, the figures for the IC50 (in test [1] (glioblastoma); in the test with U-87 MG (u-87mg atcc)) were 810 nM and 490 nM, respectively.

For `O=NN(CCCl)C(=O)NCCCl` [CARMUSTINE], the IC50 was found to be 2370 nM in test [1] (setting [2]) and 1420 nM in the test on U-87 MG (Homo sapiens, U-87 MG, 24 h).
